Patent US20240269321A1, “PREPARATION AND STORAGE OF LIPOSOMAL RNA FORMULATIONS SUITABLE FOR THERAPY” (BioNTech SE, priority 2020, published 2024)
“Also recorded” adds a separate entry of the source. Like-named read-outs stand apart in the source and are kept apart here.

Tests used:
[1] = RNA integrity in RNA lipoplexes at 40° C. (capillary electrophoresis); settings: 21 days, no cryoprotectant
Method: RNA lipoplexes are initially incubated under stress conditions (40° C.) in the absence of cryoprotectant. RNA integrity was analyzed by capillary electrophoresis over 21 days. In order to investigate the optimum pH range in the presence of an exemplary cryoprotectant, RNA lipoplexes were incubated in the presence of HEPES and sucrose at 40° C. and RNA integrity was analyzed for 21 days.
RNA integrity was analyzed as a key physicochemical parameter over 21 days.

[2] = Freezing of RNA lipoplexes with cryoprotectants and NaCl (particle size); format: physicochemical; settings: for preservation of particle size after a single freezing step: 20% (w/v) cryoprotectant, 0 to 60 mM NaCl, −30° C.
From the text: Methods: Different compounds representative for monosaccharides (glucose and sorbitol), disaccharides (sucrose and trehalose), amino acids (arginine, prolin), triols (glycerin) as well as cryoprotectant systems containing mixtures of different sugars (mannitol and sucrose) were investigated in order to identify suited cryoprotectants (FIGS. 25 and 26). Therefore RNA lipoplexes were frozen in the presence of increasing concentration of these compounds. In order to identify minimum content of cryoprotectant at a certain concentration of NaCl, RNA lipoplexes were frozen in the presence of increasing amounts of sucrose or trehalose as representative cryoprotectants (Table 7). The samples were initially frozen a single time in order to determine the concentration range of cryoprotectant to be investigated in detail. In a third experiment, the efficacy of stabilization of the particle size was challenged by freezing of the RNA lipoplexes up to 10 times in the presence of the cryoprotectant trehalose (Table 8).

[3] = Procedure: The samples were frozen at −30° C. and then transferred to the respective temperature for long-term storage (either −15 or −30° C.). After defined storage time, samples were analyzed and preservation of the colloidal stability was analyzed by measuring the particle size using PCS. These experiments were performed at a total RNA concentration of 0.05 mg/mL.
Method: To investigate the minimum content of representative cryoprotectants as sucrose, trehalose, glucose and mixtures including dextran required for long-term storage at −20° C., RNA lipoplexes were frozen at a fixed cryoprotectant content in combination with varying NaCl concentrations. For monomeric or dimeric molecular cryoprotectants as glucose, sucrose, and trehalose a concentration of 22% (w/v) was adjusted. These formulations were frozen and stored at −15 to −40° C. and long-term stability was investigated by measuring the particle size using PCS after defined storage time.
The samples were frozen and stored at −20° C. After defined storage time, samples were analyzed and preservation of the colloidal stability was analyzed by measuring the particle size.

[4] = Storage of drug product at −15° C., particle size and AF4; format: physicochemical; settings: derived from AF4 data, worst-case conditions, 12 months
Procedure: The AF4 method is a fractionation technique for characterization and separation of nanoparticles, polymers and proteins based on their diffusion coefficient. The separation is achieved using hydrodynamic forces applied in the flat separation channel. Within a channel, a parabolic flow profile is created due to the laminar flow of mobile phase against which a perpendicular force field is applied. The separation was performed by an elution inject program with an inject flow of 0.2 mL/min, detector flow of 0.5 mL/min and crossflow of 1.5 mL/min. The eluted particles were detected by multi-angle light scattering (MALS) detector (HELLEOS II, Wyatt Technology Corp.Santa Barbara, CA, USA). The LS traces were recorded by ASTRA Software Version 7.1.3.25 (Wyatt Technology Europe, Dernbach Germany).
Method: BM1 RNA lipoplexes were prepared as described above.
All other RNA lipoplexes were cryoprotected by adding cryoprotection buffers with no EDTA disodium salt (groups 0 mM and 0.4 mM EDTA disodium salt) or with EDTA disodium salt in a ratio of 1 to 6.7 to generate different EDTA disodium salt concentrations in the final PD composition.
Method: RNA lipoplexes were prepared with increasing amounts of NaCl for condensation of the RNA and liposomes without acetic acid. […]

[5] = RNA integrity in RNA lipoplexes, accelerated storage at 25° C.; settings: for stabilization of the RNA integrity by buffer system: 5 mM buffer, pH 6.0-7.0, liposomes with 2 mM acetic acid; for stability of the RNA in RNA lipoplexes by buffer system: 10% sucrose, 6.45 mM NaCl, liposomes with 5 mM acetic acid
Procedure: RNA lipoplexes are incubated under accelerated conditions (25° C.) in the presence of an exemplarily cryoprotectant. RNA integrity was analyzed by capillary electrophoresis over 60 days. Additionally, RNA lipoplexes are incubated under at the anticipated storage conditions (−15° C.) in the presence of an exemplarily cryoprotectant for up to two years. RNA integrity was analyzed by capillary electrophoresis.
The respective RNA lipoplexes were investigated under accelerated conditions (25° C.) and in the frozen state (−15° C.).
RNA lipoplexes were formed with liposomes containing 2 mM of acetic acid. The respective RNA lipoplexes were investigated under accelerated conditions (25° C.) and in the frozen state (−15° C.).
Method: All RNA lipoplexes were automatically prepared in a single batch and the different concentrations of HEPES were adjusted by the addition of a cryoprotectant solution containing different amounts of HEPES. Particle sizes and polydispersity of RNA lipolexes were analyzed by photon correlation spectroscopy (PCS) measurements. Additionally, the RNA integrity was analyzed by capillary electrophoresis and the pH was measured.
In the following study, the concentration of HEPES which is required for stabilization of the pH of the RNA lipoplexes was investigated. RNA lipoplexes were formed with liposomes containing 5 mM of acetic acid and different concentrations of HEPES were adjusted by using different cryoprotectant solutions and the respective RNA lipoplexes were investigated under accelerated conditions (25° C.). The pH range from pH 6.2 to 7.2 was tested.
In the following study, the long-term stability of RNA lipoplexes in the frozen state was investigated with the combination of the reduced concentration of NaCl and Sucrose in the presence of either HEPES or Histidine as a buffering agent at a pH of 6.5.
To analyze the RNA integrity, the RNA had to be isolated from the RNA lipoplexes. Cryoprotected RNA lipoplexes were mixed with RNeasy kit (Qiagen) RLT buffer in a ratio of 1 to 3.5. Then ethanol was added in a ratio of 1 part ethanol to 1.8 parts LPX-RLT.
The further RNA isolation was done using the RNeasy Mini Kit protocol and the RNeasy Mini Kit from Qiagen.
The integrity of the RNA was analyzed using a 48 capillary Fragment Analyzer Automated System by Advanced Analytical (AATI) according to the manufacturers instructions. Results were analyzed via PROSize 2.0 version 2.0.051 data analysis software.
Method: BM1 RNA lipoplexes were prepared as described above. All other RNA lipoplexes were prepared as described above with liposomes containing 5 mM acetic acid.
BM1 RNA lipoplexes were cryoprotected and RNA concentration adjusted as described above. All other RNA lipoplexes were cryoprotected by adding cryoprotection buffer containing the respective buffer substance in a ratio of 1 to 6.7. Final pH values were titrated by adding HCl or NaOH to the cryoprotected RNA lipoplexes, ending up to the following compositions:
Titrated, cryoprotected RNA lipoplexes were filled into 10R glass vials and stored at ambient temperature (25° C.) for at least 61 days. At defined points in time, two vials per group were collected and the RNA integrity was determined.

[6] = DOPE solubility in ethanol (HPLC); format: physicochemical
Procedure: DOPE and DOPE/DOTMA solubility in ethanol was investigated by preparing 300 mM DOPE or 330 mM DOPE/DOTMA (66:33) solutions in ethanol. The lipids were dissolved by incubating the lipid solutions at 37° C. for 20 minutes. The DOPE solutions were centrifuged at 17000 G for 1h and the DOPE concentration was measured in the supernatant by HPLC. The DOTMA/DOPE solutions were filtered through a 0.22 μm PES syringe filter and the lipid concentration was measured in the filtrate by HPLC. Lipid concentration in the different liposome formulations were measured by HPLC (Agilent technologies. Santa Clara. USA) using a Sunfire C18 2.5 μm 4.6×75 mm column (Waters. Massachusetts. USA) and a wave length of 205 nm. Mobile phase A was a mixture of 70% methanol/30% isopropanol/0.1% TFA, mobile phase B was a mixture of 55% methanol/15% isopropanol/30% water/0.1% TFA. Liposomes samples were or not diluted with water to 3 mM total lipid concentration. It has been tested if DOPE-containing solutions of higher concentration can be prepared (in the supersaturated state) and used for ethanol injection for liposome manufacturing (next section).

[7] = remark: listed apart in the source
Procedure: The mean value calculated from the first DOPE integrity values of the samples directly after manufacturing (0 month) was set to 1 as the initial integrity value of the respective study arm. The following values were normalized to this starting value.
Method: Liposomes were prepared as described above. To acidify the liposomes, different volumes of a 1 M stock solution of acetic acid was added to the liposomes with a total lipid concentration of 0.9 mM. After that, liposomes were stored at different acetic acid concentrations in a range from 0 mM to 3 mM up to a maximum of 6 months at different temperatures (4° C., 25° C. and 40° C.).

[8] = frozen with increasing amounts of cryoprotectant, Z-average, polydispersity, subvisible particles
[9] = 70 mM NaCl, up to 10 times freezing
[10] = 90 mM NaCl, up to 10 times freezing

O=C([O-])[O-].[Na+].[Na+] [carbonate, sodium carbonate]
stabilization of the RNA (RNA integrity) by buffering system [1]: did not result in comparable stabilization of the RNA

OC[C@H]1O[C@@](CO)(O[C@H]2O[C@H](CO)[C@@H](O)[C@H](O)[C@H]2O)[C@@H](O)[C@@H]1O [sucrose]
preservation of particle size after a single freezing step [2]: acceptable preservation of particle size | stabilization efficacy on long-term storage [3]: No difference in the stabilization efficacy | sucrose concentration to ensure long-term stability of the drug product [4]: at least 12 % (w/v)

N[C@@H](Cc1c[nH]cn1)C(=O)O [Histidine]
stabilization of the RNA integrity by buffer system [5]: slightly reduced stability | stability of the RNA in RNA lipoplexes by buffer system [5]: lower stability

OC[C@@H](O)[C@@H](O)[C@H](O)[C@@H](O)CO [sorbitol]
stabilization of RNA lipoplexes during freezing [2, 8]: can be used as cryoprotectants for RNA lipoplexes; also recorded: stabilization efficacy of sorbitol is lower

O=C(O)[C@@H]1CCCN1 [proline]
stabilization of RNA lipoplexes during freezing [2]: can be used as cryoprotectants for RNA lipoplexes

O=S(=O)(O)CCN1CCN(CCO)CC1 [HEPES, 2-[4-(2-hydroxyethyl)piperazin-1-yl]ethanesulfonic acid]
stabilization of the RNA integrity by buffer system [5]: comparable stabilization of the RNA integrity | stability of the RNA in RNA lipoplexes by buffer system [5]: best stability | RNA stability in the drug product by buffer ([5]; 61 days, pH 6.4 to 7.0, vs Histidine, MES, Na-Acetate): significantly enhanced RNA stability in the drug product

CCCCCCCC/C=C\CCCCCCCC(=O)OC[C@H](COP(=O)(O)OCCN)OC(=O)CCCCCCC/C=C\CCCCCCCC [DOPE, 1,2-di-(9Z-octadecenoyl)-sn-glycero-3-phosphoethanolamine]
DOPE solubility in ethanol [6]: 59 mM

N=C(N)NCCC[C@H](N)C(=O)O [arginine]
stabilization of RNA lipoplexes during freezing [2, 8]: clearly destabilizes the RNA lipoplexes

OCC(O)CO [Glycerin]
stabilization of RNA lipoplexes during freezing [2, 8]: can be used as cryoprotectants for RNA lipoplexes

OC[C@H]1O[C@H](O[C@H]2O[C@H](CO)[C@@H](O)[C@H](O)[C@H]2O)[C@H](O)[C@@H](O)[C@@H]1O [trehalose]
trehalose sufficient for stabilization of RNA lipoplex particle characteristics ([2]; 50 mM NaCl, even after 10 times freezing): ≥ 12.5% | trehalose required for exact preservation of the particle size [2, 9]: ≥ 22.5% | trehalose required for minimum stabilization [2, 9]: ≥ 12.5% | exact preservation of the particle size [2, 10]: could not be achieved even with the highest investigated concentration of 27.5% | trehalose required for minimum stabilization [2, 10]: ≥ 15.0% | preservation of particle size after a single freezing step [2]: acceptable preservation of particle size | stabilization efficacy on long-term storage [3]: No difference in the stabilization efficacy

O=P(O)(O)O [sodium phosphate]
stabilization of the RNA (RNA integrity) by buffering system [1]: comparable results

CC(=O)O [acetic acid]
stability of DOPE in liposomes (DOPE ester hydrolysis) ([7]; 0-3 mM acetic acid, 4° C., 25° C., 40° C., up to 6 months): Stability increases for all measured temperatures with increasing acetic acid concentration | acetic acid concentration above which stabilization efficacy plateaus ([7]; liposomes 0.9 mM total lipid): approx. 1 mM
